This note sets out measurements from US10392391B2 (Vertex Pharmaceuticals Incorporated, priority 2012, dated 2019).

This experiment addresses ATR kinase (full-length ATR) (Homo sapiens (Human), UniProt Q13535). The experiment can be described thus: ATR inhibition assay (radioactive-phosphate incorporation). In kind it is biochemical. In outline: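 Radiometric 33P incorporation by 5 nM full-length ATR into 800 μM target peptide with 10 μM [γ-33P]ATP, in 50 mM Tris/HCl pH 7.5, 10 mM MgCl2, 1 mM DTT, 7% DMSO, 25° C. Compound pre-incubated 10 minutes; reaction stopped after 24 hours, captured on phosphocellulose. Ki(app) from non-linear regression of initial rates.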

Where [1] appears, read: Ki(app), 5 nM full-length ATR, 10 μM ATP, 25° C.

Read-outs that look alike come from different tables or passages of the source.

Chain of ATR kinase (full-length ATR) (Q13535 whole entry): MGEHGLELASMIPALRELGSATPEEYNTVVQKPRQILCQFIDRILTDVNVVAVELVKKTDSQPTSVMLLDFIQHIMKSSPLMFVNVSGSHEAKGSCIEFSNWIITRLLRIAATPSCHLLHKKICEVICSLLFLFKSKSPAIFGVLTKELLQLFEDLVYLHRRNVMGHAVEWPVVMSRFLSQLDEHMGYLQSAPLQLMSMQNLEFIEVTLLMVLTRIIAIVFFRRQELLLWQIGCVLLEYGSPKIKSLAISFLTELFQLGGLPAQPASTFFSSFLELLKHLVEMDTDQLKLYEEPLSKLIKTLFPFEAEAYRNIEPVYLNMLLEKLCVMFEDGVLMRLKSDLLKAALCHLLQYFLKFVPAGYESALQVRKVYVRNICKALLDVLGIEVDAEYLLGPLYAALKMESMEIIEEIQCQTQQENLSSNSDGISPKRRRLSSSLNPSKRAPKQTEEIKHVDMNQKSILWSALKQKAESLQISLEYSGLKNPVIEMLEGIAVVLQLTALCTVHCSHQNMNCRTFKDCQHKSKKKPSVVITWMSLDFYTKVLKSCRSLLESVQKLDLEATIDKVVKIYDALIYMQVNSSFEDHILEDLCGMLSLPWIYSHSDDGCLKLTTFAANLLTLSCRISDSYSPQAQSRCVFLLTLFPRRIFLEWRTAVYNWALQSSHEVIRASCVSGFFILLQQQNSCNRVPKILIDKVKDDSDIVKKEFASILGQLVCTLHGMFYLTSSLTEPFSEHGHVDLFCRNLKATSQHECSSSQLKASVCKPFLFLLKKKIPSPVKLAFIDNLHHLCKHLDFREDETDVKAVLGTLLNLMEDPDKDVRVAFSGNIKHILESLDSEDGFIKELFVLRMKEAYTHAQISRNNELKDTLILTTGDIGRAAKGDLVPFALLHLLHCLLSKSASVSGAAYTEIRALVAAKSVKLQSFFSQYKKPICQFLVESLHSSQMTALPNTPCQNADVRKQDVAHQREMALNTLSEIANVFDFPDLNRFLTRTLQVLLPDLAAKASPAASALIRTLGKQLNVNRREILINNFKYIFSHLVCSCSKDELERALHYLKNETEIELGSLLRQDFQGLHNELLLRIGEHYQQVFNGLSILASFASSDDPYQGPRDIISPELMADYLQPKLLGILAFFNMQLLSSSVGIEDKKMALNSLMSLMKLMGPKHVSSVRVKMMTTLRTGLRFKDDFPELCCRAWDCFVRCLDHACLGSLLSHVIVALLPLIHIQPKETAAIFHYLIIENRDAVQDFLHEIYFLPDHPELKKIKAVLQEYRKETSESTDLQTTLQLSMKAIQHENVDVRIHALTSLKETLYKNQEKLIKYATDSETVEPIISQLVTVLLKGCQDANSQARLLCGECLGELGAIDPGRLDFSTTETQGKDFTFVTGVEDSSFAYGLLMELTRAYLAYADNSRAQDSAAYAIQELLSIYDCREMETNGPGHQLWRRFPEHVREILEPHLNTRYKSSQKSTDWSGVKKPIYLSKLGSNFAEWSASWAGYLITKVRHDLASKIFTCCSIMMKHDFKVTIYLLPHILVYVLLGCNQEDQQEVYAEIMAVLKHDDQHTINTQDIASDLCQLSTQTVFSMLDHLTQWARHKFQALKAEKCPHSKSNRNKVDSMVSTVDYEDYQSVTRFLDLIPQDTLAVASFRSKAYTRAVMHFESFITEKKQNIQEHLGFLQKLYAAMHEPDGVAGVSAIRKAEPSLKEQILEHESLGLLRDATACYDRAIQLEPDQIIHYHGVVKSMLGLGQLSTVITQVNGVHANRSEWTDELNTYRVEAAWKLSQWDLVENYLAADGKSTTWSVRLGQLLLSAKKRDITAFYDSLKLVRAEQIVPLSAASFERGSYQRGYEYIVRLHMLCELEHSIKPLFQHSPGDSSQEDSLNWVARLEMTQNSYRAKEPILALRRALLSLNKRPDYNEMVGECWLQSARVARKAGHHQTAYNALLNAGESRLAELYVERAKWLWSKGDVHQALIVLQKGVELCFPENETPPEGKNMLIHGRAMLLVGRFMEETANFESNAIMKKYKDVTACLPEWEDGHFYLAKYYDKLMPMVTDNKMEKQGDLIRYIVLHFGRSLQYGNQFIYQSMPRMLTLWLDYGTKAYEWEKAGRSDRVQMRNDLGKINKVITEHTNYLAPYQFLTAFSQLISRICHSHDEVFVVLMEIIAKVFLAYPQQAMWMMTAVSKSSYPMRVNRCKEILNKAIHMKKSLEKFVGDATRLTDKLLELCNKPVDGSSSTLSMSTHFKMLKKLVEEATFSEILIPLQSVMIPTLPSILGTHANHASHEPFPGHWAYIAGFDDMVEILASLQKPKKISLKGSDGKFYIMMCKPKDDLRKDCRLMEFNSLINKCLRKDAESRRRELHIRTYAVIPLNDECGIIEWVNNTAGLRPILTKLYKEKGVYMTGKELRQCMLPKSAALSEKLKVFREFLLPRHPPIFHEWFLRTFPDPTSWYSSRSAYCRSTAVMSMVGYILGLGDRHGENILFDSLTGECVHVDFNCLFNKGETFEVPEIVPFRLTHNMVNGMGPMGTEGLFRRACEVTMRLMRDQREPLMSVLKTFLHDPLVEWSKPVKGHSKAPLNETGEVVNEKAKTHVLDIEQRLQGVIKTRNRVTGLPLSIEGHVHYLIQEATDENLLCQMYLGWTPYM

Take `COc1cc(Cl)ncc1NC(=O)c1c(N)nn2cc(CC#N)cnc12` [I-O-27, 2-amino-N-(6-chloro-4-methoxypyridin-3-yl)-6-(cyanomethyl)pyrazolo[1,5-a]pyrimidine-3-carboxamide]: under setting [1], the Ki was < 10 nM. The same measure, in the same setting: in the case of `Nc1nn2cc(F)cnc2c1C(=O)Nc1cnccc1N1CCN(S(=O)(=O)C2CC2)CC1` [I-N-176, 2-amino-N-(4-(4-(cyclopropylsulfonyl)piperazin-1-yl)pyridin-3-yl)-6-fluoropyrazolo[1,5-a]pyrimidine-3-carboxamide] it was 10 to 1000 nM. Still for that read-out and setting: as for `Cc1nonc1N1CCN(c2ccncc2NC(=O)c2c(N)nn3cc(F)cnc23)CC1` [I-N-260, 2-amino-6-fluoro-N-(4-(4-(4-methyl-1,2,5-oxadiazol-3-yl)piperazin-1-yl)pyridin-3-yl)pyrazolo[1,5-a]pyrimidine-3-carboxamide], the figure is 10 to 1000 nM; as for `Nc1nn2cc(Cl)cnc2c1C(=O)Nc1cnccc1OC1CC2(CNC2)C1` [I-O-72, N-(4-(2-azaspiro[3.3]heptan-6-yloxy)pyridin-3-yl)-2-amino-6-chloropyrazolo[1,5-a]pyrimidine-3-carboxamide], 10 to 1000 nM.

As to `CC(C)(C#N)c1cnc2c(C(=O)Nc3cncc(F)c3N3CCN(C4COC4)CC3)c(N)nn2c1` [I-N-144], the Ki was 1000 to 5000 nM. For the compound `Nc1nn2cc(Cl)cnc2c1C(=O)Nc1cnccc1N1CCC(N2CCn3cncc3C2)CC1` [I-N-101, 2-amino-6-chloro-N-(4-(4-(5,6-dihydroimidazo[1,5-a]pyrazin-7(81-1)-yl)piperidin-1-yl)pyridin-3-yl)pyrazolo[1,5-a]pyrimidine-3-carboxamide], the Ki under setting [1] lay within 10 to 1000 nM. The same measure, in the same setting: in the case of `N#CCc1cnc2c(C(=O)Nc3cnccc3OCC3CC3)c(N)nn2c1` [I-O-32, 2-amino-6-(cyanomethyl)-N-(4-(cyclopropylmethoxy)pyridin-3-yl)pyrazolo[1,5-a]pyrimidine-3-carboxamide] it was < 10 nM; in that of `Nc1nn2cc(F)cnc2c1C(=O)Nc1cncc(F)c1N1CCC(C(=O)N2CC3(COC3)C2)CC1` [I-G-72, N-(4-(4-(2-oxa-6-azaspiro[3.3]heptane-6-carbonyl)piperidin-1-yl)-5-fluoropyridin-3-yl)-2-amino-6-fluoropyrazolo[1,5-a]pyrimidine-3-carboxamide], 10 to 1000 nM; in that of `CN1CCN2CCN(c3ccncc3NC(=O)c3c(N)nn4cc(F)cnc34)CC2C1=O` (stereo not shown) [I-N-233, 2-amino-6-fluoro-N-(4-(8-methyl-9-oxohexahydro-1H-pyrazino[1,2-a]pyrazin-2(6H)-yl)pyridin-3-yl)pyrazolo[1,5-a]pyrimidine-3-carboxamide], 10 to 1000 nM. Same read-out and setting: as for `CN1CC(OC2CCN(c3ccncc3NC(=O)c3c(N)nn4cc(F)cnc34)CC2)C1` [I-N-164, 2-amino-6-fluoro-N-(4-(4-((1-methylazetidin-3-yl)oxy)piperidin-1-yl)pyridin-3-yl)pyrazolo[1,5-a]pyrimidine-3-carboxamide], the figure is 10 to 1000 nM. Turning to `CN1CC2(CCN(c3ccncc3NC(=O)c3c(N)nn4cc(F)cnc34)CC2)CC1=O` [I-N-236, 2-amino-6-fluoro-N-(4-(2-methyl-3-oxo-2,8-diazaspiro[4.5]decan-8-yl)pyridin-3-yl)pyrazolo[1,5-a]pyrimidine-3-carboxamide], the Ki under setting [1] was 10 to 1000 nM. The same measure, in the same setting: in the case of `CN1CCC[C@H]1C(=O)N1CCN(c2c(F)cncc2NC(=O)c2c(N)nn3cc(F)cnc23)CC1` [I-N-157, (S)-2-amino-6-fluoro-N-(5-fluoro-4-(4-(1-methylpyrrolidine-2-carbonyl)piperazin-1-yl)pyridin-3-yl)pyrazolo[1,5-a]pyrimidine-3-carboxamide] it was 10 to 1000 nM; in that of `CN1CCN(C(=O)C2CCN(c3c(F)cncc3NC(=O)c3c(N)nn4cc(Cl)cnc34)CC2)CC1` [I-G-5, 2-amino-6-chloro-N-(5-fluoro-4-(4-(4-methylpiperazine-1-carbonyl)piperidin-1-yl)pyridin-3-yl)pyrazolo[1,5-a]pyrimidine-3-carboxamide], 10 to 1000 nM.
